“Also recorded” adds a separate entry of the source.
Legend:
Assay type in all cases: in vivo, mouse
[1] = Daily body weight, food and fluid intake monitoring; details: 10-day supplementation
Source text: Male C57BL/6J mice, (RRID: IMSR_JAX: 000664), aged 6-8 weeks, were obtained from Jackson Laboratories (ME, U.S.A) for the study. The mice were housed individually under a reversed 12-hours light/dark cycle, with lights off from […] to 7:00 am. A minimum acclimation period of 2 weeks was provided for all animals before they were randomly assigned to their respective groups. Mice had free access to food (Irradiated chow, Teklad global 18% protein rodent diet, 2918, Inotiv, WI, U.S.A) and deionized water to acclimate to the testing environment. Body weight and daily food and fluid intake were monitored and noted for all animal experiments.
The food intake was assessed by providing a pre-weighed amount of food in their cage hopper and then weighing the remaining food inside the cage and in the hopper daily. To assess daily fluid intake, the sodium valerate and NaCl bottles were pre-weighed, and the remaining amount was deducted after the measurement period. Food and fluid intakes were normalized to mouse body weight by dividing the average intake by the average body weight.

[2] = tested on: male mice (C57BL/6J); assay: Six-week repeated DID protocol
Description: In this study, the impact of sodium valerate treatment on ethanol intake and blood ethanol concentration (BEC) was assessed using a six-week Drinking in the Dark (DID) protocol in male mice (C57BL/6J). All mice (n=30) were single-housed and had ad libitum access to food and their respective drinking water. Water bottles were removed 30 minutes prior to and throughout each DID session. During the two-week baseline period, all mice underwent a standardized DID paradigm consisting of a 4-day cycle each week: 2-hour access to 20% ethanol on days 1-3, followed by a 4-hour session on day 4. Starting in week three, mice were randomly assigned to one of three groups (10 mice per group): (1) Valerate-i.p., which received intraperitoneal injections of sodium valerate (200 mg/kg body weight) 30 minutes before each DID session; (2) Valerate-drinking water, which received 200 mM sodium valerate in drinking water for 30 minutes before to each DID session; and (3) Control, which received no valerate treatment. Ethanol consumption was evaluated on day 4 of each week (Wecks 1-6), and BEC was measured on day 4 of weeks 2, 4, and 6.

[3] = tested on: male C57BL/6J mice; assay: Intermittent-access 20% ethanol two-bottle-choice drinking
Description: Twenty male C57BL/6J mice were given access to 20% ethanol for three 24-hour sessions per week. On the first Monday, Wednesday, and Friday, mice were offered increasing concentrations of ethanol (3%, 6%, and 10% w/v, respectively) in one bottle, with water in a second bottle, to acclimate them to ethanol consumption. After this acclimation, mice received one bottle of 20% ethanol and one bottle of water every Monday, Wednesday, and Friday for 24 hours. To minimize side bias, the position of the bottles in the cage was alternated between sessions.
For the first 8 weeks, mice received intraperitoneal (i.p.) injections of phosphate-buffered saline (PBS) 30 minutes prior to each ethanol session to establish stable ethanol consumption (g/kg) and ethanol preference (ethanol intake as a proportion of total fluid intake). In the following 4 weeks (12 sessions), mice were randomly assigned to receive i.p. injections of either sodium valerate or sodium chloride (NaCl) at a dose of 600 mg/kg, 30 minutes before each ethanol session (n=10 per group). Ethanol and water consumption, as well as ethanol preference, were measured throughout the study to assess the effects of sodium valerate on ethanol drinking behavior compared to the NaCl control. After each 24-hour access period, the ethanol and water bottles were weighed, and mouse body weights were recorded to calculate ethanol intake (g/kg/24 hours) and water intake (mL/kg/24 hours). Ethanol preference was calculated as the ratio of ethanol intake to total fluid intake.

[4] = tested on: male mice; assay: Dosage dependent, short-term sodium valerate in 4-day DID regimen; details: day 1 to day 4, n=7/group, vs vehicle
Description: Different dosages of sodium valerate ranging from 20 mM to 200 mM were tested in male mice (n=7/group, 6-8 weeks old) using a 4-day DID regimen. Different dosages of sodium valerate were given through drinking water 30 min before the 2-hour drinking exposure at Day 1 and continued to day 4 except the drinking hours.
A standard 4-day drinking in the dark (DID) model was used to evaluate binge-like ethanol drinking patterns in mice. A 20% v/v ethanol solution was prepared by diluting 190-proof ethyl alcohol (Sigma, MO, U.S.A) with deionized water. During days 1-3, the water bottles were temporarily removed during the dark cycle of the mice, and the mice were provided with a tube containing the 20% v/v ethanol solution for a duration of two hours. On day four, the assessment of binge-like ethanol consumption took place, where the mice were given access to the 20% v/v ethanol solution for a period of four hours. The volume of fluid in the tube (read to the closest 100 μL) was measured immediately upon placement, and at two hours and four hours into the test. Following the completion of the four hours test, approximately 100 μL of blood was collected through cardiac puncture after CO2 euthanasia. Blood samples were subjected to centrifugation at 10,000 rpm for 10 minutes. […] The quantity of ethanol consumed was then calculated as grams per kilogram of the mouse's body weight. […]

[5] = tested on: acetylation of histone H3 and H4 in the amygdala; assay: Histone H3 and H4 acetylation ELISA in amygdala; details: n=7 mice/group, vs NaCl
Description: Amygdala samples were thawed, and the histone fractions were prepared using a commercial histone extraction kit (Abcam, Cambridge, UK) following manufacturers instruction. The bulk acetylation of histone H3 and H4 was determined using commercial ELISA kits according to the manufacturer's instructions (Abcam, Cambridge, UK). The OD of the samples was measured using a 96 well plate reader at 450 nm (iMark™ Microplate Absorbance Reader; Biorad, CA, USA). The amounts of acetyl histone H3 and H4 were measured by comparing to the kit supplied standards.
The total acetylation levels of histone H3 and H4 were quantified in the amygdala of mice subjected to the DID paradigm following supplementation with sodium valerate or NaCl (n=7 mice/group).

CCCCC(=O)[O-].[Na+] [sodium valerate]
body weight vs NaCl group ([1]; n=10 mice/group): did not differ significantly; also recorded: did not affect | fluid intake (intake of sodium valerate and NaCl) vs NaCl group ([1]; n=14 mice/group): no statistical difference; also recorded: did not affect | food consumption vs NaCl group ([1]; n=14 mice/group): no statistical difference; also recorded: did not affect | ethanol consumption week 5, Valerate-drinking water ([2]; 200 mM in drinking water for 30 min before each DID session from week 3, n=10, p<0.05 vs control): significantly reduced | BEC week 6, Valerate-drinking water ([2]; 200 mM in drinking water for 30 min before each DID session, p<0.01 vs control): significant reductions | ethanol consumption week 5, Valerate-i.p. ([2]; 200 mg/kg i.p. 30 min before each DID session from week 3, n=10, p<0.01 vs control): significantly reduced | BEC week 6, Valerate-i.p. ([2]; 200 mg/kg i.p. 30 min before each DID session, p<0.01 vs control): significant reductions | ethanol consumption week 6, Valerate-i.p. ([2]; 200 mg/kg i.p. 30 min before each DID session, p<0.1 vs control): trend toward reduced ethanol consumption | effects during the initial weeks of treatment ([2]; both valerate groups): no significant effects | ethanol consumption, week 11 ([3]; 600 mg/kg i.p. 30 min before each session, n=10, baseline 24.38±4.19, p<0.001): 15.47±1.49 g/kg/24 hours | ethanol preference, week 11 ([3]; 600 mg/kg i.p. 30 min before each session, n=10, baseline 66.81±4.8%, p<0.01): 54.26±4.5% | ethanol intake, week 12 ([3]; 600 mg/kg i.p. 30 min before each session, n=10, p<0.001 vs baseline): 13.42±1.60 g/kg/24 hours | ethanol preference, week 12 ([3]; 600 mg/kg i.p. 30 min before each session, n=10, p<0.01 vs baseline): 52.06±3.92% | ethanol consumption compared to the NaCl control group ([3]; 600 mg/kg i.p., weeks 11 and 12, p<0.001 for both weeks): significantly lower | ethanol preference compared to the NaCl control group ([3]; 600 mg/kg i.p., weeks 11 and 12, p<0.01 for both weeks): significantly lower | alcohol intake, 100 mM ([4]; 100 mM in drinking water 30 min before alcohol exposure): significantly decreased; also recorded: reduce drinking significantly | alcohol intake, 200 mM ([4]; 200 mM in drinking water 30 min before alcohol exposure): significantly decreased; also recorded: reduce drinking significantly | increase in H3 acetylation in the amygdala [5]: not statistically significant | H4 acetylation in the amygdala ([5]; p<0.01): significantly increased
